# Results published in patent publication US10674699B2, “Endophyte enhanced seedlings with increased pest tolerance” (priority 2006, dated 2020).
# How the values were obtained:
# [1] = tested on: fruit flies (Drosophila melanogaster); settings: Dobias et al. 1980; cited from earlier work
# [2] = Rugulosin analysis of needles by HPLC (toxin in planta); design: species or system Picea glauca; settings: field trees analyzed in 2005, limit of detection 150 ng/g
# Experimental: Rugulosin of purity>95% was used for standards. The presence of rugulosin was then to be determined in a sub-sample of 113 randomly-selected trees of the 330 trees determined to be endophyte positive by antibody. A 100 mg sample of freeze-dried needles was ground to a fine power as describe above and extracted with 10 mL of ice cold petroleum ether by stirring for 45 min under conditions of low light. The flask was kept on ice during the extracting and was covered with aluminium foil to prevent degradation by light. The suspension was filtered by suction and discarded. The needles were returned to the flask and extracted with 10 mL of chloroform for 45 min as above for petroleum ether. The new suspension was then filtered by suction and retained while the needles were discarded. The chloroform extract was washed with 10 mL of 5% NaHCO3 in a separatory funnel. […]
# The dried extracts were re-dissolved in 50 μL of acetonitrile, 10 μL was removed and injected into an 1100 series Agilent Technologies HPLC-DAD, using a Synergi Max RP 80A, 250×4.6 column (Phenomonex) and a gradient method adapted from Frisvad (1987). […] Samples were analysed at 389 nm, the maximum UVNIS absorption for rugulosin and peak identity was confirmed by full spectrum data from the diode array detector. The limit of quantification was 150 ng/g freeze dried powdered material; recoveries from spiked needles averaged 75%. […]
# [3] = tested on: Choristoneura fumiferana (spruce budworm) larvae; experiment: Dietary rugulosin in artificial diet, spruce budworm larvae; format: in vivo
# Experimental: Spruce budworm (Choristoneura fumiferana) larvae were obtained from the colony at the Natural Resources Canada, Canadian Forest Service Laboratory in Sault Ste. Marie, Ontario and stored at 5° C. For each test, second instar larvae are put in creamer cups containing approximately 15 ml of artificial diet which had been prepared the day before and allowed to set overnight. The diet used is based on McMorran (1965) as modified by Forestry Canada. The cups are placed in a growth chamber at 22° C., 55% RH with 16 h light/day until they reach 4-5 instar as estimated by visually assessment. Batches of diet are prepared and suitable portions were measured out for addition of extracts, fractions or pure compounds. After 4 days on the test diet, the budworms were frozen, weighed and measured. The data was analyzed for dry weight reductions in comparison to controls and for changes in the distribution of insects at different instars in comparison to controls.
# C. fumiferana larvae (spruce budworm) were obtained from Insect Production Services, Forestry Canada (Sault Ste. Marie, ON) and stored at 5° C. For each test, a sufficient number of larvae were hatched and put in creamer cups containing 15 ml of artificial diet. The diet was prepared in-house (McMorran 1965). The cups were placed in a growth chamber at 22° C., 55% RH with 16 h light/day until the larvae reached second/third instar (McGugan 1954). A suitable amount of diet was prepared, and 4 aliquots dispensed into a flask. Dilutions of pure rugulosin were made in 95% ethanol to provide the required concentrations (540 μl ethanol solution plus the vehicle control) and added to the flasks respectively. The diet was mixed with a stir bar and by the pipette used to dispense the media. Two drops of hot liquid diet were added with a 10 ml sterile pipette (0.1 g dry weight) to 4 ml tapered plastic sample cups (Fisher Scientific #025444, #25444A). […] Head capsule widths were determined using a stereo microscope at 40× with ocular and stage micrometers. […]
# [4] = tested on: Choristoneura fumiferana (spruce budworm) larvae; settings: Calhoun et al. 1992; cited from earlier work
structure (smiles),measurement,setting,value
Cc1cc(O)c2c(c1)C(=O)[C@]13C(=C2O)C(=O)[C@@H]2[C@H](O)[C@H]1[C@@H]1[C@@H](O)[C@H]3C(=O)C3=C(O)c4c(O)cc(C)cc4C(=O)[C@]312 [rugulosin],dietary toxicity of rugulosin,[1],~50 µM
same,toxicity to Drosophila melanogaster,[1],toxic
same,individual branch samples positive for rugulosin or its degradation product,[2],89%
same,dietary rugulosin concentration with significantly reduced head capsule,"[3]; artificial diet, 4 d",100 µM
same,dietary toxic effect level for rugulosin,[3]; dietary LOEL adjusted for mean ratio dry weight:wet weight of needles,0.5 µg/g
same,rugulosin concentration in vitro that affected budworm growth and development,"[3]; in vitro (diet), Example 1",1 µg/g
same,toxicity to C. fumiferana larvae in an artificial diet,[4],toxic
